Experimental findings from patent US4458079A, “Sulfur-containing imidazoles” (Bristol-Myers Company, priority 1980, dated 1984) are described below.

Common to all, as to assay type: cell-based
Assay [1] has as its system Candida albicans. In words: MIC in Sabouraud broth (broth dilution). The conditions noted are these: 24 h, read-out: Minimum Inhibitory Concentration (MIC). The source says: (§1) The antifungal activity of some of the compounds of Formula I against a number of human and animal pathogenic fungi is given in Table I for either a liquid medium (Sabouraud broth) or an agar medium (Sabouraud broth plus 1% ionagar). Two-fold serial dilutions were made with Sabouraud's liquid medium from stock solutions of the test compounds, usually in dimethyl sulfoxide, N,N-dimethylformamide or water. The Minimum Inhibitory Concentrations (MIC's), which were considered to be the minimum concentrations of the test compounds in micrograms per milliliter which prevent grossly detectable growth of the test organisms, were then determined after inoculation of the medicated broths with the test organisms, and incubation at the appropriate temperature and for the appropriate time interval. Candida species were incubated for 24 hours at 37°, while the dermatophytes Trichophyton rubrum, Trichophyton mentagrophytes and Microsporum canis were incubated for five days at 28°. The agar dilution assay was essentially the same as the broth dilution assay except that 1% inoagar was added to the Sabouraud broth.
Background: Dilution methods test growth across graded concentrations, often in twofold steps.

Assay [2] concerns Candida krusei. In words: MIC in Sabouraud broth (broth dilution). The conditions noted are these: Pichia kudriavzevii, strain A 15052, 24 hours at 37°, read-out: Minimum Inhibitory Concentration (MIC).
Source text: as §1

Assay [3] deals with Candida tropicalis. As to the kind of experiment: MIC in Sabouraud broth (broth dilution). The conditions noted are these: strain A 15051, 24 hours at 37°, read-out: Minimum Inhibitory Concentration (MIC).
Source text: as §1

Assay [4] deals with Microsporum canis. As to the kind of experiment: MIC in Sabouraud broth (broth dilution). The settings on record: 120 h, read-out: Minimum Inhibitory Concentration (MIC).
Source text: as §1

In assay [5] the test system is Trichophyton mentagrophytes. In words: MIC in Sabouraud broth (broth dilution). The settings on record: 120 h, strain A 9870, five days at 28°, read-out: Minimum Inhibitory Concentration (MIC).
Source text: as §1

Assay [6] concerns Trichophyton rubrum. In words: MIC in Sabouraud broth (broth dilution). The settings on record: 120 h, strain A 22789, five days at 28°, read-out: Minimum Inhibitory Concentration (MIC).
Source text: as §1

Assay [7] has as its system Candida albicans. In words: MIC in Sabouraud broth plus 1% ionagar (agar dilution). The settings on record: 24 h, read-out: Minimum Inhibitory Concentration (MIC).
Source text: as §1

The subject of assay [8] is Candida krusei. The assay is described as above. The settings on record: Pichia kudriavzevii, strain A 15052, 24 hours at 37°, read-out: Minimum Inhibitory Concentration (MIC).
Source text: as §1

Assay [9] concerns Candida tropicalis. Described as above. The settings on record: strain A 15051, 24 hours at 37°, read-out: Minimum Inhibitory Concentration (MIC).
Source text: as §1

For assay [10], the system named is Microsporum canis. Described as above. The settings on record: 120 h, read-out: Minimum Inhibitory Concentration (MIC).
Source text: as §1

For assay [11], the system named is Trichophyton mentagrophytes. The assay is described as above. The settings on record: 120 h, strain A 9870, five days at 28°, read-out: Minimum Inhibitory Concentration (MIC).
Source text: as §1

The subject of assay [12] is Trichophyton rubrum. The assay is described as above. The conditions noted are these: 120 h, strain A 22789, five days at 28°, read-out: Minimum Inhibitory Concentration (MIC).
Source text: as §1

[13] abbreviates: strain A 15049, 24 hours at 37°.
[14] abbreviates: strain A 9872, five days at 28°.
[15] abbreviates: strain A 22494, five days at 28°.

In brackets after ≈: the same amount, converted by molar mass.

On to `Cl.Clc1ccc(CSC(Cn2ccnc2)SCc2ccc(Cl)cc2)cc1` [Example 1, 1-[2,2-Bis(4-chlorobenzylthio)ethyl]-1H-imidazole Hydrochloride], for which the MIC with Candida albicans [1] (strain A 1505, 24 hours at 37°) was 2 µg/mL; with Candida albicans [1] (strain A 9540, 24 hours at 37°) it was 1 µg/mL; with Candida albicans [1] (setting [13]), 2 µg/mL; with Candida krusei [2], 0.5 µg/mL; with Candida tropicalis [3] it was greater than 16 µg/mL; with Microsporum canis [4] (setting [14]), 0.032 µg/mL. The MIC in the assay on Microsporum canis [4] (setting [15]) worked out at 0.063 µg/mL; in [5], 0.032 µg/mL; in the assay on Trichophyton rubrum [6], 0.063 µg/mL.
With `Clc1cccc(Cl)c1CSC(Cn1ccnc1)SCc1c(Cl)cccc1Cl.O=C(O)C(=O)O` [2(h), 1-[2,2-bis(2,6-dichlorobenzylthio)ethyl]-1H-imidazole hydrogen oxalate], the MIC with Candida albicans [7] (strain A 1505, 24 hours at 37°) turned out to be 16 µg/mL; in the assay on Candida albicans [7] (strain A 9540, 24 hours at 37°), 8 µg/mL; in the assay on Candida albicans [7] (setting [13]) it was 16 µg/mL; in the assay on Candida krusei [8], 32 µg/mL; in the assay with Candida tropicalis [9], 63 µg/mL; in the assay on Microsporum canis [10] (setting [14]), 1 µg/mL. Further, the MIC in the assay with Microsporum canis [10] (setting [15]) was 0.25 µg/mL; in assay [11], 1 µg/mL; with Trichophyton rubrum [12] it was 0.5 µg/mL.
`CSc1ccc(CSC(Cn2ccnc2)SCc2ccc(SC)cc2)cc1.Cl` [2(l), 1-[2,2-bis(4-methylthiobenzylthio)ethyl]-1H-imidazole hydrochloride]: the MIC with Candida albicans [1] (strain A 1505, 24 hours at 37°) was greater than 16 µg/mL; in the assay on Candida albicans [1] (strain A 9540, 24 hours at 37°) it was greater than 16 µg/mL; in the assay on Candida albicans [1] (setting [13]) it was greater than 16 µg/mL; with Candida krusei [2], 8 µg/mL; in the assay on Candida tropicalis [3], greater than 16 µg/mL; with Microsporum canis [4] (setting [14]), 0.063 µg/mL. In addition, the MIC turned out to be 0.13 µg/mL in the assay on Microsporum canis [4] (setting [15]), 0.063 µg/mL in assay [5] and 0.063 µg/mL in the assay with Trichophyton rubrum [6].
`Cl.Clc1ccc(CSC(Cn2ccnc2)SCc2ccc(Cl)s2)s1` [2(p), 1-[2,2-bis(5-chloro-2-thienylmethylthio)ethyl]-1H-imidazole hydrochloride]: the MIC in the assay with Candida albicans [7] (strain A 1505, 24 hours at 37°) stood at 4 µg/mL; in the assay on Candida albicans [7] (strain A 9540, 24 hours at 37°) it was 4 µg/mL; with Candida albicans [7] (setting [13]) it was 4 µg/mL; with Candida krusei [8] it was 8 µg/mL; in the assay on Candida tropicalis [9] it was 125 µg/mL; in the assay on Microsporum canis [10] (setting [14]), 0.25 µg/mL. Besides, the results for the MIC (in the assay on Microsporum canis [10] (setting [15]); in assay [11]; with Trichophyton rubrum [12]) were 0.032 µg/mL, 0.5 µg/mL and 0.5 µg/mL, respectively.
Consider `Cl.Clc1ccc(CSC(Cn2ccnc2)Sc2ccc(Cl)cc2)cc1` (stereo not drawn) [Example 5, 1-[2-(4-Chlorobenzylthio)-2-(4-chlorophenylthio)ethyl]-1H-imidazole Hydrochloride], for which the MIC in the assay with Candida albicans [7] (strain A 1505, 24 hours at 37°) was 4 µg/mL; in the assay on Candida albicans [7] (strain A 9540, 24 hours at 37°), 4 µg/mL; in the assay on Candida albicans [7] (setting [13]), 4 µg/mL; with Candida krusei [8], 4 µg/mL; in the assay with Candida tropicalis [9], 32 µg/mL; in the assay on Microsporum canis [10] (setting [14]), 0.25 µg/mL. For the same compound, the MIC was found to be 0.032 µg/mL with Microsporum canis [10] (setting [15]), 0.063 µg/mL in [11] and 0.25 µg/mL with Trichophyton rubrum [12].
As for `Cc1ccc(CSC(Cn2ccnc2)SCc2ccc(C)cc2)cc1.Cl` [2(j), 1-[2,2-bis(4-methylbenzylthio)ethyl]-1H-imidazole hydrochloride], the MIC in the assay with Candida albicans [1] (strain A 1505, 24 hours at 37°) is 4 µg/mL; in the assay with Candida albicans [1] (strain A 9540, 24 hours at 37°) it was 4 µg/mL; in the assay on Candida albicans [1] (setting [13]), 4 µg/mL; with Candida krusei [2] it was 8 µg/mL; in the assay on Candida tropicalis [3], greater than 16 µg/mL; in the assay on Microsporum canis [4] (setting [14]), 0.063 µg/mL. Besides, the MIC (in the assay on Microsporum canis [4] (setting [15]); in [5]; with Trichophyton rubrum [6]) was 0.063 µg/mL each time.
`Clc1ccc(CSC(Cn2ccnc2)SCc2ccc(Cl)cc2Cl)c(Cl)c1` [2(g), 1-[2,2-bis(2,4-dichlorobenzylthio)ethyl]-1H-imidazole]: the MIC in the assay with Candida albicans [1] (strain A 1505, 24 hours at 37°) was greater than 16 µg/mL; in the assay on Candida albicans [1] (strain A 9540, 24 hours at 37°), greater than 16 µg/mL; in the assay with Candida albicans [1] (setting [13]), greater than 16 µg/mL; in the assay with Candida krusei [2], greater than 16 µg/mL; in the assay on Candida tropicalis [3] it was greater than 16 µg/mL; with Microsporum canis [4] (setting [14]), 0.032 µg/mL (≈ 0.0669 µM). Moreover, the MIC (in the assay with Microsporum canis [4] (setting [15]); in [5]; in the assay with Trichophyton rubrum [6]) was 0.063 µg/mL (≈ 0.132 µM) throughout.
